# Measurements taken from patent US12447171B2 (CELGENE QUANTICEL RESEARCH, INC., priority 2019, dated 2025).
# Tested on: MCL-1
# Experiment: Western blot of MCL-1 in AML cell lines
# Format: cell-based
# Method: Lysates were quantified using a bicinchoninic acid (BCA) kit (Piece/Thermo Fisher, Waltham, MA). 20 to 30 μg protein was resolved on a 4-12% SDS-PAGE gel, transferred to PVDF membranes (80V/90 minute by wet-transfer), and blocked with Oddysey TBS blocking buffer for 1 hour and then probed with appropriate primary antibodies overnight at 4° C. using dilution as recommended by manufacturer. Membranes were washed three times for a total of 30 minutes and then incubated with secondary antibodies at room temperature in the dark for 1 hour. After another three washes, Odyssey infrared imaging system and companion software (LI-COR biosciences, Lincoln, NE, USA) were used to scan immunoblot membranes and to quantify band intensity according to the manufacturer's instructions. The ratio of proteins of interest to loading control in treated samples was normalized to the corresponding ratio in untreated cells. Antibodies used for immunoblotting were purchased from the following sources: BCL-2 (sc-7382), MCL1- (sc-819) from Santa Cruz Biotechnology (Dallas, TX, USA, Bim (2819), caspase-3 (9664) from Cell Signaling Technology; beta-Actin (A2228) from Sigma-Aldrich; DNMTI (ab188453) from AbCam; TRDye 680 goat anti-rabbit and IRDye 800 goat anti-mouse secondary antibodies (#925-68073 and #925-32212) were purchased from Li-COR Biosciences (Lincoln, NE).
structure (smiles),measurement,setting,value
"Nc1ncn([C@@H]2O[C@H](CO)[C@@H](O)[C@H]2O)c(=O)n1 [5-azacytidine, 4-amino-1-B-D-ribofuranosyl-1,3,5-triazin-2(1H)-one]",start of MCL-1 degradation after treatment,KG1α,6 h
same,start of MCL-1 degradation after treatment,MV4-11,6 h
same,MCL-1 degradation,OCI-AML2,did not lead to any degradation of MCL-1
same,start of MCL-1 degradation after treatment,THP-1,16 h
same,extent of MCL-1 degradation,"THP-1, by 24 hours",incomplete degradation by 24 hours
